PubChem BioAssay AID330 (DTP/NCI, 2004)
Values joined by “and” are separate entries in the source; they are usually repeats but may differ in a detail not shown here. Equal values may be shown once. Toxic doses and inconclusive results are not listed. How the source made its calls: active means survival T/C of 150% or more; inactive means T/C below 125% in these data.

System: P388 leukemia ip, CD2F1 mice, survival T/C
Assay: NCI In Vivo Anticancer Drug Screen. Data for tumor model P388 Leukemia (intraperitoneal) in CD2F1 (CDF1) mice
Conditions: endpoint: median survival time, higher = longer survival
Method in brief: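 Mice carrying the transplanted tumor received test compound or vehicle. Survival was recorded in each group, and the value is the treated-group measurement divided by that of the vehicle-treated control group.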

[1] = dose: 100.0 mg/kg/injection, schedule: Q04DX003 (ip), vehicle: Klucel (hydroxypropylcellulose) (HPC)
[2] = dose: 200.0 mg/kg/injection, schedule: Q04DX003 (ip), vehicle: Klucel (hydroxypropylcellulose) (HPC)
[3] = dose: 400.0 mg/kg/injection, schedule: Q04DX003 (ip), vehicle: Klucel (hydroxypropylcellulose) (HPC)
[4] = dose: 25.0 mg/kg/injection, schedule: Q01DX009 (ip), vehicle: other
[5] = dose: 50.0 mg/kg/injection, schedule: Q01DX009 (ip), vehicle: other
[6] = dose: 100.0 mg/kg/injection, schedule: Q01DX009 (ip), vehicle: other
[7] = dose: 60.0 mg/kg/injection, schedule: Q01DX005 (ip), vehicle: Klucel (hydroxypropylcellulose) (HPC)
[8] = dose: 120.0 mg/kg/injection, schedule: Q01DX005 (ip), vehicle: Klucel (hydroxypropylcellulose) (HPC)
[9] = dose: 50.0 mg/kg/injection, schedule: Q01DX005 (ip), vehicle: saline with Tween-80
[10] = dose: 100.0 mg/kg/injection, schedule: Q01DX005 (ip), vehicle: saline with Tween-80
[11] = dose: 200.0 mg/kg/injection, schedule: Q01DX005 (ip), vehicle: saline with Tween-80

Measured: T/C

Cc1cc(=O)[nH]c2c(C)cccc12
inactive: [1] 96 % of control | [2] 98 % of control | [3] 99 % of control

S=C(Nc1ccc(I)cc1)SCc1ccco1
inactive: dose: 50.0 mg/kg/injection, schedule: Q01DX009 (ip), vehicle: suspension in saline 90 % of control | dose: 100.0 mg/kg/injection, schedule: Q01DX009 (ip), vehicle: suspension in saline 112 % of control | dose: 200.0 mg/kg/injection, schedule: Q01DX009 (ip), vehicle: suspension in saline 109 % of control

Nc1ccc(C2=Cc3ccc(N)cc3S2(=O)=O)cc1
inactive: dose: 100.0 mg/kg/injection, schedule: Q04DX002 (ip), vehicle: saline 99 % of control | dose: 200.0 mg/kg/injection, schedule: Q04DX002 (ip), vehicle: saline 99 % of control | dose: 400.0 mg/kg/injection, schedule: Q04DX002 (ip), vehicle: saline 101 % of control

N=C(N)CCCCCCCCC(=N)N
inactive: dose: 0.78 mg/kg/injection, schedule: Q01DX009 (ip), vehicle: saline 98 % of control and 111 % of control and 118 % of control | dose: 1.5 mg/kg/injection, schedule: Q01DX009 (ip), vehicle: saline 116 % of control | dose: 1.56 mg/kg/injection, schedule: Q01DX009 (ip), vehicle: saline 112 % of control and 114 % of control | dose: 6.25 mg/kg/injection, schedule: Q01DX009 (ip), vehicle: saline 123 % of control | dose: 12.5 mg/kg/injection, schedule: Q01DX009 (ip), vehicle: saline 107 % of control and 116 % of control and 119 % of control

CC(=S)NC(=O)NC(=O)c1ccc(C)cc1
inactive: dose: 100.0 mg/kg/injection, schedule: Q01DX001 (ip), vehicle: saline 102 % of control and 104 % of control | dose: 200.0 mg/kg/injection, schedule: Q01DX001 (ip), vehicle: saline 112 % of control and 96 % of control | dose: 400.0 mg/kg/injection, schedule: Q01DX001 (ip), vehicle: saline 112 % of control and 97 % of control

C1=C[N-]c2c3c(ccc2=C1)=CC=C[N-]3.N#[O+].O.O=N[O-].O=N[O-].[Ru+2]
inactive: dose: 3.13 mg/kg/injection, schedule: Q04DX003 (ip), vehicle: water 107 % of control | dose: 12.5 mg/kg/injection, schedule: Q04DX003 (ip), vehicle: water 121 % of control

[Cl][Pd][Cl]
inactive: dose: 3.0 mg/kg/injection, schedule: Q01DX009 (ip), vehicle: saline with Tween-80 95 % of control | dose: 6.0 mg/kg/injection, schedule: Q01DX009 (ip), vehicle: saline with Tween-80 113 % of control | dose: 12.0 mg/kg/injection, schedule: Q01DX009 (ip), vehicle: saline with Tween-80 122 % of control

Clc1ccc(CNc2ncnc3[nH]ncc23)c(Cl)c1
inactive: dose: 100.0 mg/kg/injection, schedule: Q04DX003 (ip), vehicle: saline with Tween-80 100 % of control | dose: 200.0 mg/kg/injection, schedule: Q04DX003 (ip), vehicle: saline with Tween-80 100 % of control

O=[N+]([O-])c1ccc2[nH]c3cnccc3c2c1
inactive: dose: 12.5 mg/kg/injection, schedule: Q01DX009 (ip), vehicle: other 106 % of control | [4] 105 % of control | [5] 108 % of control | [6] 107 % of control

CN1C(=O)C(Br)(Br)CC1c1cccnc1 (centres undefined)
inactive: [7] 101 % of control | [8] 109 % of control | dose: 240.0 mg/kg/injection, schedule: Q01DX005 (ip), vehicle: Klucel (hydroxypropylcellulose) (HPC) 100 % of control

C[Si](C)(C)c1ccc2c(c1O)C(=O)c1ccccc1C2=O
inactive: [9] 100 % of control | [10] 100 % of control | [11] 102 % of control

COC1=NCc2ccccc2C2(OC)C(C)(C)C12C#N (centres undefined)
inactive: [9] 96 % of control | [10] 99 % of control | [11] 101 % of control

O=C1C=CC(=Nc2cccc3c2C(=O)c2ccccc2-3)O1
inactive: [9] 107 % of control and 115 % of control | [10] 120 % of control and 122 % of control | [11] 122 % of control

O=C(O)C(O)C(O)C(OC1OC(CO)C(O)C(O)C1O)C(O)CO (centres undefined)
inactive: dose: 50.0 mg/kg/injection, schedule: Q01DX005 (ip), vehicle: saline 105 % of control | dose: 100.0 mg/kg/injection, schedule: Q01DX005 (ip), vehicle: saline 101 % of control | dose: 200.0 mg/kg/injection, schedule: Q01DX005 (ip), vehicle: saline 102 % of control

ClC1=C(Cl)[C@@]2(Cl)[C@H]3[C@H]4C[C@H]([C@@H]5O[C@H]45)[C@H]3[C@@]1(Cl)C2(Cl)Cl
inactive: dose: 12.5 mg/kg/injection, schedule: Q04DX003 (ip), vehicle: Klucel (hydroxypropylcellulose) (HPC) 95 % of control

O=C(O)c1c(Cl)n(Cc2cc(Cl)ccc2Cl)c2ccccc12
inactive: [7] 95 % of control | [8] 88 % of control

Cc1c(Br)c(C)[n+]([O-])n1O
inactive: [7] 99 % of control | [8] 95 % of control

CCNC1(c2ccccc2)CCCCC1
inactive: dose: 6.25 mg/kg/injection, schedule: Q04DX003 (ip), vehicle: saline 121 % of control | dose: 12.5 mg/kg/injection, schedule: Q04DX003 (ip), vehicle: saline 106 % of control | dose: 25.0 mg/kg/injection, schedule: Q04DX003 (ip), vehicle: saline 104 % of control

CC(=O)Nc1ccc(/C=C\c2ccnc3ccccc23)cc1
inactive: dose: 25.0 mg/kg/injection, schedule: Q04DX002 (ip), vehicle: saline with Tween-80 109 % of control

NC(=O)Oc1cccc(OC(N)=O)c1
inactive: [4] 103 % of control | [5] 111 % of control | dose: 50.0 mg/kg/injection, schedule: Q04DX003 (ip), vehicle: other 95 % of control | [6] 113 % of control | dose: 200.0 mg/kg/injection, schedule: Q01DX009 (ip), vehicle: other 113 % of control | dose: 200.0 mg/kg/injection, schedule: Q04DX003 (ip), vehicle: other 98 % of control

CC1=C(O)c2ccccc2C(=O)C1=O
inactive: dose: 12.5 mg/kg/injection, schedule: Q01DX009 (ip), vehicle: saline with Tween-80 101 % of control | dose: 25.0 mg/kg/injection, schedule: Q01DX009 (ip), vehicle: saline with Tween-80 113 % of control and 90 % of control | dose: 50.0 mg/kg/injection, schedule: Q01DX009 (ip), vehicle: saline with Tween-80 105 % of control and 116 % of control | dose: 100.0 mg/kg/injection, schedule: Q01DX009 (ip), vehicle: saline with Tween-80 92 % of control | dose: 200.0 mg/kg/injection, schedule: Q01DX009 (ip), vehicle: saline with Tween-80 90 % of control

CC1=C(O)C(=O)C=C2C1=CC=C1[C@@]2(C)CCC2(C)[C@@H]3C[C@@H](C)C(=O)C[C@]3(C)CC[C@]12C (some centres undefined)
inactive: dose: 12.5 mg/kg/injection, schedule: Q01DX005 (ip), vehicle: Klucel (hydroxypropylcellulose) (HPC) 109 % of control | dose: 25.0 mg/kg/injection, schedule: Q01DX005 (ip), vehicle: Klucel (hydroxypropylcellulose) (HPC) 101 % of control | dose: 50.0 mg/kg/injection, schedule: Q01DX005 (ip), vehicle: Klucel (hydroxypropylcellulose) (HPC) 90 % of control | dose: 100.0 mg/kg/injection, schedule: Q01DX005 (ip), vehicle: Klucel (hydroxypropylcellulose) (HPC) 97 % of control | dose: 260.0 mg/kg/injection, schedule: Q01DX005 (ip), vehicle: Klucel (hydroxypropylcellulose) (HPC) 97 % of control

CCN(CC)Cc1c(C)[nH]c2c(ccc3cc4ccccc4cc32)c1=O
inactive: [1] 94 % of control | [2] 97 % of control | [3] 96 % of control

CSc1nc(NC2OC(CO)C(O)C(O)C2O)c(C=O)c(=O)[nH]1 (centres undefined)
inactive: dose: 60.0 mg/kg/injection, schedule: Q01DX005 (ip), vehicle: saline with Tween-80 92 % of control | dose: 120.0 mg/kg/injection, schedule: Q01DX005 (ip), vehicle: saline with Tween-80 95 % of control | dose: 240.0 mg/kg/injection, schedule: Q01DX005 (ip), vehicle: saline with Tween-80 87 % of control
